Patent publication US12257247B2 (Monte Rosa Therapeutics AG, priority 2023, dated 2025)
Like-named read-outs stand apart in the source and are kept apart here.

Target: T1, VAV1 (Homo sapiens, UniProt P15498+Q96SW2)
T1 construct: A heterozygous VAV1 C-terminal HiBiT knock-in pool was generated at Monte Rosa Therapeutics from a clonal Jurkat cell; endogenous in cells; host or cells: Jurkat clone stably expressing LgBiT, homozygous GSPT1-G575N; heterozygous VAV1-HiBiT knock-in pool
Test: VAV1 degradation activity, VAV1-HiBiT knock-in Jurkat luminescence assay (Example A, Table 1)
Format: cell-based
Conditions: VAV1-HiBiT knock-in Jurkat cells, luminescence read at 6 and 24 hours; for Dmax: Jurkat
Procedure: Cells were plated at 10,000 cells per well using Multiflo (BioTek) or Multi Drop Combi (Thermo Fisher) in 384-well white solid bottom plates (Corning, 3570BC) in 25 ul volume in RPMI 1640 media (Thermo Fischer, 22400105) containing 10% FBS (Corning, 35-075-CV), 1% Penicillin/Streptomycin (ThermoFisher Scientific, 15140-122), and 1% Endurazine (Nano-Glo Endurazine Live Cell Substrate (Promega, N2571)). Cells were incubated for ˜16 hours at 37° C., 5% CO2. 25 nL of a compound at 10 μM were dosed into the plate using an Echo® 650 liquid handler (Labcyte). Cells were incubated at 37° C., 5% CO2 and signal was read at 6 and 24 hours after compound addition on a Pherastar FSX using “LUM plus” optic module.
Analysis was performed in Scinamic (Scinamic, Cambridge, MA). Luminescence response (R) was calculated by the formula: response=100*(S−N)/(P−N) where S is the signal of the well, N and P the mean negative and positive control values respectively of the same plate. The luminescence response was then fitted in Scinamic using a 3-parameter agonist logistic fit (hillslope=1, EC50>0, top/bottom unconstrained).

[1] = read-out: VAV1 DC50 (nM), class

Row | SMILES | Dmax (read-out: VAV1 Dmax %) | Dmax (read-out: VAV1 Dmax %, class) | DC50 (read-out: VAV1 DC50) | DC50 [1] | VAV1 Dmax %
1 | O=C1CN(CCOc2ccc(-c3cccc(C4CCC(=O)NC4=O)c3Cl)cc2)CCN1 (stereo not drawn) [Compound 121] | 94% | > 90% | 11 nM | ≤ 100 nM | 
2 | O=C1CCC(c2cccc(-c3ccc(CCN4CCOCC4)cc3)c2Cl)C(=O)N1 (stereo not drawn) [Compound 122] | 81.3% | 60 to 90% | 48.8 nM | ≤ 100 nM | 
3 | O=C1CCC(c2cccc(-c3ccc(OCc4cccnc4)cc3)c2Cl)C(=O)N1 (stereo not drawn) [Compound 123] | 96.3% | > 90% | 11.6 nM | ≤ 100 nM | 
4 | O=C1CCC(c2cccc(-c3ccc(OCc4ccncc4)cc3)c2Cl)C(=O)N1 (stereo not drawn) [Compound 124] | 98.8% | > 90% | 4.04 nM | ≤ 100 nM | 
5 | COc1cc(-c2cccc(C3CCC(=O)NC3=O)c2Cl)ccc1C(F)F (stereo not drawn) [Compound 125] | 75.9% | 60 to 90% | 1530 nM | > 1000 nM | 
6 | COCCCOc1ccc(-c2cccc(C3CCC(=O)NC3=O)c2Cl)cc1 (stereo not drawn) [Compound 126] | 91.4% | > 90% | 127 nM | 100 to 1000 nM | 
7 | Cc1cc(C)n(Cc2ccc(-c3cccc(C4CCC(=O)NC4=O)c3Cl)cc2)n1 (stereo not drawn) [Compound 127] | 92.4% | > 90% | 39 nM | ≤ 100 nM | 
8 | CC(=O)Nc1ccc(-c2cccc(C3CCC(=O)NC3=O)c2Cl)cc1 (stereo not drawn) [Compound 128] | 81.1% | 60 to 90% | 67.4 nM | ≤ 100 nM | 
9 | CC(C)Nc1ccc(-c2cccc(C3CCC(=O)NC3=O)c2Cl)cc1 (stereo not drawn) [Compound 129, 3-(2-chloro-4′-(isopropylamino)-[1,1′-biphenyl]-3-yl)piperidine-2,6-dione] | 68.2% | 60 to 90% | 240 nM | 100 to 1000 nM | 
10 | Nc1ccc(-c2cccc(C3CCC(=O)NC3=O)c2Cl)cc1 (stereo not drawn) [Compound 130, 3-(4′-amino-2-chloro-[1,1′-biphenyl]-3-yl)piperidine-2,6-dione] | 84.6% | 60 to 90% | 37.1 nM | ≤ 100 nM | 
11 | Cc1cc(-c2cccc(C3CCC(=O)NC3=O)c2Cl)ccc1N (stereo not drawn) [Compound 131] | 94.9% | > 90% | 7.27 nM | ≤ 100 nM | 
12 | COc1cc(-c2cccc(C3CCC(=O)NC3=O)c2Cl)ccc1C (stereo not drawn) [Compound 132] | 84.5% | 60 to 90% | 475 nM | 100 to 1000 nM | 
13 | N#Cc1ccc(-c2cccc(C3CCC(=O)NC3=O)c2Cl)cc1N (stereo not drawn) [Compound 133] | 79% | 60 to 90% | 427 nM | 100 to 1000 nM | 
14 | CNc1ccc(-c2cccc(C3CCC(=O)NC3=O)c2Cl)cc1 (stereo not drawn) [Compound 134, 3-(2-chloro-4′-(methylamino)-[1,1′-biphenyl]-3-yl)piperidine-2,6-dione] | 85.7% | > 90% | 90.9 nM |  | 76.45%
15 | CN(C)CCOc1ccc(-c2cccc(C3CCC(=O)NC3=O)c2Cl)cc1 (stereo not drawn) [Compound 135] | 34.9% | < 60% | ≥ 10000 nM | > 1000 nM | 
16 | O=C1CCC(c2cccc(-c3ccc(OCCN4CCCC4)cc3)c2Cl)C(=O)N1 (stereo not drawn) [Compound 136] | 40.9% | < 60% | ≥ 10000 nM | > 1000 nM | 
17 | COc1cc(OC(F)F)ccc1-c1cccc(C2CCC(=O)NC2=O)c1Cl (stereo not drawn) [Compound 137] | 63.8% | 60 to 90% | 7440 nM | > 1000 nM | 
18 | Nc1cc(-c2cccc(C3CCC(=O)NC3=O)c2Cl)ccc1Cl (stereo not drawn) [Compound 138] | 84.6% | 60 to 90% | 604 nM | 100 to 1000 nM | 

Row | SMILES | Dmax (read-out: VAV1 Dmax %) | Dmax (read-out: VAV1 Dmax %, class) | DC50 (read-out: VAV1 DC50) | DC50 [1] | VAV1 Dmax %
19 | COc1ccc(-c2cccc(C3CCC(=O)NC3=O)c2Cl)cc1C#N (stereo not drawn) [Compound 139] | 25.2% | < 60% | ≥ 10000 nM | > 1000 nM | 
20 | O=C1CCC(c2cccc(-c3ccc(Cn4ccnc4)cc3)c2Cl)C(=O)N1 (stereo not drawn) [Compound 140, 3-(4′-((1H-imidazol-1-yl)methyl)-2-chloro-[1,1′-biphenyl]-3-yl)piperidine-2,6-dione] | 83.8% | 60 to 90% | 52.2 nM | ≤ 100 nM | 
21 | O=C1CCC(c2cccc(-c3ccc(OCC4CCOC4)cc3)c2Cl)C(=O)N1 (stereo not drawn) [Compound 141] | 87.6% | 60 to 90% | 99.2 nM | ≤ 100 nM | 
22 | N#Cc1ccc(-c2cccc(C3CCC(=O)NC3=O)c2Cl)cc1 (stereo not drawn) [Compound 142] | 69.9% | 60 to 90% | 705 nM | 100 to 1000 nM | 
23 | O=C1CCC(c2c(F)ccc(-c3ccc(Cn4ccccc4=O)cc3)c2Cl)C(=O)N1 (stereo not drawn) [Compound 143, 3-(2-chloro-4-fluoro-4′-((2-oxopyridin-1(2H)-yl)methyl)-[1,1′-biphenyl]-3-yl)piperidine-2,6-dione] | 55% | < 60% | 6160 nM | > 1000 nM | 
24 | Cn1ccc(COc2ccc(-c3ccc(F)c(C4CCC(=O)NC4=O)c3Cl)cc2)n1 (stereo not drawn) [Compound 144, 3-(2-chloro-4-fluoro-4′-((1-methyl-1H-pyrazol-3-yl)methoxy)-[1,1′-biphenyl]-3-yl)piperidine-2,6-dione] | 65.3% | 60 to 90% | 248 nM | 100 to 1000 nM | 
25 | Cn1ccc(COc2ccc(-c3ccc(Cl)c(C4CCC(=O)NC4=O)c3F)cc2)n1 (stereo not drawn) [Compound 145, 3-(4-chloro-2-fluoro-4′-((1-methyl-1H-pyrazol-3-yl)methoxy)-[1,1′-biphenyl]-3-yl)piperidine-2,6-dione] | 55.5% | < 60% | 13800 nM | > 1000 nM | 
26 | Cn1ccc(COc2ccc(-c3ccc(Cl)c(C4CCC(=O)NC4=O)c3Cl)cc2)n1 (stereo not drawn) [Compound 146, 3-(2,4-dichloro-4′-((1-methyl-1H-pyrazol-3-yl)methoxy)-[1,1′-biphenyl]-3-yl)piperidine-2,6-dione] | 81.5% | 60 to 90% | 8400 nM | > 1000 nM | 
27 | O=C1CCC(c2c(F)ccc(-c3ccc(Cn4ccccc4=O)cc3)c2F)C(=O)N1 (stereo not drawn) [Compound 147, 3-(2,4-difluoro-4′-((2-oxopyridin-1(2H)-yl)methyl)-[1,1′-biphenyl]-3-yl)piperidine-2,6-dione] | 33.3% | < 60% | ≥ 10000 nM | > 1000 nM | 33.28%
28 | COc1ccc(-c2ccc(F)c(C3CCC(=O)NC3=O)c2F)cc1C (stereo not drawn) [Compound 148] | 21.4% | < 60% | ≥ 10000 nM | > 1000 nM | 
29 | O=C1CCC(c2cccc(-c3ccc(Cn4ccccc4=O)cc3)c2F)C(=O)N1 (stereo not drawn) [Compound 149, 3-(2-fluoro-4′-((2-oxopyridin-1(2H)-yl)methyl)-[1,1′-biphenyl]-3-yl)piperidine-2,6-dione] | 89.6% | 60 to 90% | 91.5 nM | ≤ 100 nM | 
30 | Cn1ccc(COc2ccc(-c3cccc(C4CCC(=O)NC4=O)c3F)cc2)n1 (stereo not drawn) [Compound 150, 3-(2-fluoro-4′-((1-methyl-1H-pyrazol-3-yl)methoxy)-[1,1′-biphenyl]-3-yl)piperidine-2,6-dione] | 84.2% | 60 to 90% | 48 nM | ≤ 100 nM | 
31 | Cn1ccc(COc2ccc(-c3cccc(C4CCC(=O)NC4=O)c3)cc2)n1 (stereo not drawn) [Compound 151, 3-(4′-((1-methyl-1H-pyrazol-3-yl)methoxy)-[1,1′-biphenyl]-3-yl)piperidine-2,6-dione] | 39.8% | < 60% | ≥ 10000 nM | > 1000 nM | 
32 | Cc1cc(OCc2ccn(C)n2)ccc1-c1ccc(Cl)c(C2CCC(=O)NC2=O)c1 (stereo not drawn) [Compound 152] | 8.11% | < 60% | ≥ 10000 nM | > 1000 nM | 
33 | Cn1ccc(COc2ccc(-c3ccc(Cl)c(C4CCC(=O)NC4=O)c3)c(Cl)c2)n1 (stereo not drawn) [Compound 153, 3-(2′,4-dichloro-4′-((1-methyl-1H-pyrazol-3-yl)methoxy)-[1,1′-biphenyl]-3-yl)piperidine-2,6-dione] | 1.26% | < 60% | ≥ 10000 nM | > 1000 nM | 
34 | Cn1ccc(COc2ccc(-c3cccc(C4CCC(=O)NC4=O)c3Cl)cc2)n1 (stereo not drawn) [Compound 154, 3-(2-chloro-4′-((1-methyl-1H-pyrazol-3-yl)methoxy)-[1,1′-biphenyl]-3-yl)piperidine-2,6-dione] | 97% | > 90% | 18.7 nM | ≤ 100 nM | 
35 | Cc1cc(-c2cccc(C3CCC(=O)NC3=O)c2Cl)ccc1OCCN1CCOCC1 (stereo not drawn) [Compound 155, 3-(2-chloro-3′-methyl-4′-(2-morpholinoethoxy)-[1,1′-biphenyl]-3-yl)piperidine-2,6-dione] | 92.7% | > 90% | 14.9 nM | ≤ 100 nM | 
